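Compound exposure: 48 hours, 5 concentrations, 96-well plates. Here, GI50 denotes the concentration required for 50% inhibition of growth.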 Activity calls are given as the source filed them. Cut-off read from the data, not from the text of the source: active = GI50 up to about 1.1 µM and inactive = higher.
Experiments:
Experiment in all cases: DTP human tumour cell line panel, 48 h
HOP-62 = system: HOP-62
SK-MEL-28 = system: SK-MEL-28
SNB-19 = system: SNB-19
HT-29 = system: HT-29
CCRF-CEM = system: CCRF-CEM
HL-60 = system: HL-60
OVCAR-4 = system: OVCAR-4
UO-31 = system: UO-31
LXFL 529 = system: LXFL 529
A549 = system: A549
HCT-116 = system: HCT-116
UACC-62 = system: UACC-62
UACC-257 = system: UACC-257
NCI-H23 = system: NCI-H23
SF-539 = system: SF-539
NCI-H460 = system: NCI-H460
SK-MEL-5 = system: SK-MEL-5
LOX IMVI = system: LOX IMVI
RXF 393 = system: RXF 393
SF-295 = system: SF-295
SNB-75 = system: SNB-75
M19-MEL = system: M19-MEL
M14 = system: M14
EKVX = system: EKVX
OVCAR-3 = system: OVCAR-3
Malme-3M = system: Malme-3M
HCT-15 = system: HCT-15
SN12C = system: SN12C
HOP-92 = system: HOP-92
CAKI-1 = system: CAKI-1
NCI-H226 = system: NCI-H226
DMS-273 = system: DMS-273
SF-268 = system: SF-268
SK-MEL-2 = system: SK-MEL-2
SNB-78 = system: SNB-78
MOLT-4 = system: MOLT-4
KM12 = system: KM12
DMS-114 = system: DMS-114
OVCAR-5 = system: OVCAR-5
TK-10 = system: TK-10
SR = system: SR
NCI-H522 = system: NCI-H522
OVCAR-8 = system: OVCAR-8
K562 = system: K562
XF498 = system: XF498
SW-620 = system: SW-620
RPMI-8226 = system: RPMI-8226
HCC 2998 = system: HCC 2998
COLO 205 = system: COLO 205
ACHN = system: ACHN
HOP-18 = system: HOP-18
786-0 = system: 786-0
A498 = system: A498
KM-20L2 = system: KM-20L2
U-251 = system: U-251
SK-OV-3 = system: SK-OV-3
IGROV-1 = system: IGROV-1

Compound: COc1cc(C2c3cc4c(cc3[C@@H](Nc3ccc(C(=O)O)cc3)C3COC(=O)[C@H]23)OCO4)cc(OC)c1O (some centres not stated)
- GI50 (HOP-62): 6.11 µM (inactive)
- GI50 (SK-MEL-28): > 17.5 µM (inactive)
- GI50 (SNB-19): 6.11 µM (inactive)
- GI50 (HT-29): 11.1 µM (inactive)
- GI50 (CCRF-CEM): 2.56 µM (inactive)
- GI50 (HL-60): 3.24 µM (inactive)
- GI50 (OVCAR-4): 11 µM (inactive)
- GI50 (UO-31): > 17.5 µM (inactive)
- GI50 (LXFL 529): 5.82 µM (inactive)
- GI50 (A549): > 17.5 µM (inactive)
- GI50 (HCT-116): 14.5 µM (inactive)
- GI50 (UACC-62): 9.82 µM (inactive)
- GI50 (UACC-257): > 17.5 µM (inactive)
- GI50 (NCI-H23): 7.74 µM (inactive)
- GI50 (SF-539): 4.7 µM (inactive)
- GI50 (NCI-H460): 2.01 µM (inactive)
- GI50 (SK-MEL-5): 9.77 µM (inactive)
- GI50 (LOX IMVI): 2.42 µM (inactive)
- GI50 (RXF 393): 10.5 µM (inactive)
- GI50 (SF-295): 8.85 µM (inactive)
- GI50 (SNB-75): 6.58 µM (inactive)
- GI50 (M19-MEL): 10 µM (inactive)
- GI50 (M14): 12.6 µM (inactive)
- GI50 (EKVX): > 17.5 µM (inactive)
- GI50 (OVCAR-3): 14.7 µM (inactive)
- GI50 (Malme-3M): 8.55 µM (inactive)
- GI50 (HCT-15): 7.5 µM
- GI50 (SN12C): > 17.5 µM (inactive)
- GI50 (HOP-92): 4.81 µM (inactive)
- GI50 (CAKI-1): 5.93 µM (inactive)
- GI50 (NCI-H226): 4.47 µM (inactive)
- GI50 (DMS-273): 5.65 µM (inactive)
- GI50 (SF-268): 10.8 µM (inactive)
- GI50 (SK-MEL-2): 16.6 µM (inactive)
- GI50 (SNB-78): 5.78 µM (inactive)
- GI50 (MOLT-4): 0.546 µM (active)

Compound: Cc1cc([N+](=O)[O-])c(C)c2c1[nH]c1ccc(/C(CCC3CCCC3)=N\N)cc12
- GI50 (HOP-62): 18.4 µM (inactive)
- GI50 (SK-MEL-28): 16.9 µM (inactive)
- GI50 (SNB-19): 17.7 µM (inactive)
- GI50 (HT-29): 24 µM (inactive)
- GI50 (CCRF-CEM): 10.4 µM (inactive)
- GI50 (HL-60): > 10 µM (inactive)
- GI50 (OVCAR-4): 27.4 µM (inactive)
- GI50 (KM12): 16 µM (inactive)
- GI50 (UO-31): 15.3 µM (inactive)
- GI50 (DMS-114): 17.6 µM (inactive)
- GI50 (A549): 17.6 µM (inactive)
- GI50 (HCT-116): 9.89 µM (inactive)
- GI50 (OVCAR-5): > 10 µM (inactive)
- GI50 (TK-10): 14.2 µM (inactive)
- GI50 (SR): 19.6 µM (inactive)
- GI50 (UACC-257): 20 µM (inactive)
- GI50 (NCI-H23): 14.7 µM (inactive)
- GI50 (SF-539): 17.3 µM (inactive)
- GI50 (NCI-H460): 18 µM (inactive)
- GI50 (SK-MEL-5): 18.2 µM (inactive)
- GI50 (LOX IMVI): 15.4 µM (inactive)
- GI50 (NCI-H522): 16.4 µM (inactive)
- GI50 (SF-295): 18.8 µM (inactive)
- GI50 (SNB-75): 22 µM (inactive)
- GI50 (OVCAR-8): 23.1 µM (inactive)
- GI50 (M19-MEL): 19 µM (inactive)
- GI50 (K562): 10.3 µM (inactive)
- GI50 (M14): 17.6 µM (inactive)
- GI50 (EKVX): 17.4 µM (inactive)
- GI50 (OVCAR-3): 20 µM (inactive)
- GI50 (Malme-3M): 17.5 µM (inactive)
- GI50 (HCT-15): 14.2 µM
- GI50 (XF498): 14.7 µM (inactive)
- GI50 (SN12C): 14.8 µM (inactive)
- GI50 (CAKI-1): > 10 µM (inactive)
- GI50 (SW-620): 16.5 µM (inactive)
- GI50 (RPMI-8226): 20.3 µM (inactive)
- GI50 (HCC 2998): 17 µM (inactive)
- GI50 (NCI-H226): 20.8 µM (inactive)
- GI50 (DMS-273): 20.2 µM (inactive)
- GI50 (SF-268): 18.9 µM (inactive)
- GI50 (SK-MEL-2): 16.2 µM (inactive)
- GI50 (COLO 205): 17.5 µM (inactive)
- GI50 (SNB-78): 36.5 µM (inactive)
- GI50 (ACHN): 15.5 µM (inactive)
- GI50 (HOP-18): 11 µM (inactive)
- GI50 (MOLT-4): 11.9 µM (inactive)
- GI50 (786-0): 14.7 µM (inactive)

Compound: C=C1C(=O)O[C@H](c2ccoc2)C[C@@H]1[C@@]1(C)CCCC2(C)C(=O)OCC21 (some centres not stated)
- GI50 (HOP-62): > 100 µM (inactive)
- GI50 (SK-MEL-28): > 100 µM (inactive)
- GI50 (SNB-19): > 100 µM (inactive)
- GI50 (HT-29): > 100 µM (inactive)
- GI50 (A498): > 100 µM (inactive)
- GI50 (CCRF-CEM): > 100 µM (inactive)
- GI50 (KM-20L2): > 100 µM (inactive)
- GI50 (OVCAR-4): > 100 µM (inactive)
- GI50 (U-251): > 100 µM (inactive)
- GI50 (KM12): > 100 µM (inactive)
- GI50 (UO-31): > 100 µM (inactive)
- GI50 (LXFL 529): > 100 µM (inactive)
- GI50 (DMS-114): > 100 µM (inactive)
- GI50 (A549): > 100 µM (inactive)
- GI50 (HCT-116): > 100 µM (inactive)
- GI50 (UACC-62): > 100 µM (inactive)
- GI50 (OVCAR-5): > 100 µM (inactive)
- GI50 (TK-10): > 100 µM (inactive)
- GI50 (UACC-257): > 100 µM (inactive)
- GI50 (SK-OV-3): > 100 µM (inactive)
- GI50 (NCI-H23): > 100 µM (inactive)
- GI50 (SF-539): > 100 µM (inactive)
- GI50 (NCI-H460): > 100 µM (inactive)
- GI50 (SK-MEL-5): > 100 µM (inactive)
- GI50 (LOX IMVI): > 100 µM (inactive)
- GI50 (NCI-H522): > 100 µM (inactive)
- GI50 (RXF 393): > 100 µM (inactive)
- GI50 (SF-295): > 100 µM (inactive)
- GI50 (SNB-75): > 100 µM (inactive)
- GI50 (OVCAR-8): > 100 µM (inactive)
- GI50 (M19-MEL): > 100 µM (inactive)
- GI50 (IGROV-1): > 100 µM (inactive)
- GI50 (K562): > 100 µM (inactive)
- GI50 (M14): > 100 µM (inactive)
- GI50 (EKVX): > 100 µM (inactive)
- GI50 (OVCAR-3): > 100 µM (inactive)
- GI50 (Malme-3M): > 100 µM (inactive)
- GI50 (HCT-15): > 100 µM
- GI50 (XF498): > 100 µM (inactive)
- GI50 (SN12C): > 100 µM (inactive)
- GI50 (CAKI-1): > 100 µM (inactive)
- GI50 (SW-620): > 100 µM (inactive)
- GI50 (RPMI-8226): > 100 µM (inactive)
- GI50 (HCC 2998): > 100 µM (inactive)
- GI50 (NCI-H226): > 100 µM (inactive)
- GI50 (DMS-273): > 100 µM (inactive)
- GI50 (SF-268): > 100 µM (inactive)
- GI50 (SK-MEL-2): > 100 µM (inactive)
- GI50 (COLO 205): > 100 µM (inactive)
- GI50 (SNB-78): > 100 µM (inactive)
- GI50 (ACHN): > 100 µM (inactive)
- GI50 (MOLT-4): > 100 µM (inactive)
- GI50 (786-0): > 100 µM (inactive)

Reference: ChEMBL document CHEMBL1201862, “PubChem BioAssay data set” (2004)
